{
  "source": "patent US20120302636A1",
  "about": "“METHOD OF TREATING A DISORDER ASSOCIATED WITH MTP” (priority 2009, published 2012)",
  "key": {"[1]": {"experiment": "Example 6: pharmacokinetics", "format": "in vivo, human", "details": "5 to 20 mg QD and BID, healthy males; generally BLQ", "text": "(§1) Originally, the study was planned as 4 sequential cohorts of healthy male Caucasian subjects (Cohorts 1 to 4) followed by a cohort of male Caucasian patients with elevated triglycerides (HTG patients, Cohort 5). An additional cohort of healthy male Caucasian subjects (Cohort 4.1) was enrolled into the study (6 cohorts in total). The cohorts were as follows: Cohorts 1 to 4.1 had healthy Caucasian males, aged 18-45 years with a body weight of 60-100 kg and body mass index (BMI) between 19-28 kg/m^2 at screening and fasting triglycerides less than 1.69 mmol/L (less than 150 mg/dL) at the screening visit and Day-3. Cohort 5 had Caucasian males, aged 18-50 years with a body weight of 60-115 kg and BMI less than 35 kg/m^2 at screening and with elevated fasting triglycerides (TG≧1.69 mmol/L and <5.62 mmol/L; ≧150 mg/dL and <500 mg/dL) at the screening visit and Day-3.\n(§2) The planned treatment for Cohorts 1 to 4 was twice daily administration of 5 mg, 10 mg or 15 mg the compound of formula (I)/placebo, or once daily administration of 30 mg the compound of formula (1)/placebo. […] As only the compound of formula (I) 5 mg capsules were supplied for this study, doses were administered once daily to determine the maximum tolerated dose, and the planned doses for each subsequent cohort were amended based on the safety and tolerability data obtained from the preceding cohort. The dose level and dosing schedule planned for the patients in Cohort 5 was determined by the maximum tolerated dose and dosing schedule as reported from the planned Cohorts 1 to 4.1.\n(§3) Twelve healthy male Caucasian subjects were enrolled in each of Cohorts 1 to 4.1; dose cohorts were randomized in a ratio 9:3 to receive the compound of formula (I) or placebo, respectively, at the dose level associated with that cohort. Twelve male Caucasian patients with elevated triglycerides were randomized in a ratio of 8:4 to receive the compound of formula (I) or placebo, respectively, at the maximum tolerated dose level and dosing schedule."}, "serum lipid levels [2]": {"system": "serum lipid levels", "experiment": "Example 6: serum lipid levels / pharmacodynamics", "format": "in vivo, human", "text": "as §1, §2, §3"}, "[3]": {"experiment": "Example 4: pharmacokinetics", "format": "in vivo, human", "description": "(§4) One hundred five Japanese patients with hyperlipidemia (LDL-C between 140 and 220 mg/dL; TG≦400 mg/dL) participated in the study. […] For the efficacy analysis, 95 subjects were observed (0.5 mg BID: 25 subjects, 1 mg BID: 24 subjects, 2 mg BID: 22 subjects, 4 mg BID: 24 subjects)."}, "[4]": {"experiment": "Example 7: weight loss and tolerability in obese subjects", "details": "for mean changes from baseline in weight: 2 weeks", "experimental": "(§5) This example involved a clinical study of the compound of formula (I), which was a randomized, double-blind, placebo-controlled, ascending dose study to evaluate the safety, tolerability and pharmacokinetics/pharmacodynamics of the compound of formula (I) tablets administered twice daily for two weeks in obese subjects.\n(§6) The subjects were separated into four arms of nine (one with ten) test subjects (which were administered the compound of formula (I)) and three placebo subjects."}, "LDL-C levels": {"system": "LDL-C levels", "experiment": "Example 4: 8-week study in hyperlipidemia, efficacy", "format": "in vivo, human", "description": "as §4\nThe objective was to administer the compound of formula (I) orally to hyperlipidemic patients at a dose of 0.5, 1, 2, or 4 mg as capsules twice daily after the morning (e.g., breakfast) and evening meal (e.g., dinner) for eight weeks in order to explore a dose range in which the compound of formula (I) reduced LDL-C levels. In addition, the effects on lipid metabolism, safety, and pharmacokinetics of the compound of formula (I) were evaluated."}, "[5]": {"experiment": "Example 8: pharmacokinetics (trough concentrations)", "quoted_text": "This example involved a clinical study of the compound of formula (I), which was a randomized, double-blind, placebo-controlled, parallel group study to evaluate the efficacy of the compound of formula (I) administered twice daily for twelve weeks in obese subjects."}, "[6]": {"experiment": "Example 7: ascending dose study in obese subjects, pharmacokinetics", "experimental": "as §5, §6"}, "serum lipid levels [7]": {"system": "serum lipid levels", "experiment": "Example 5: fixed-dose or escalating doses 12 weeks in hyperlipidemia, efficacy", "format": "in vivo, human", "details": "for LDL-C level decrease: dose escalation group", "description": "Fifty-two Japanese patients with hyperlipidemia (LDL-C between 140 and 220 mg/dL; TG≦400 mg/dL) participated in the study. […] One group received a fixed dose of 2 mg per tablet through the entire study. The other group received escalating doses of 0.5 mg (weeks 1-4), 1 mg (weeks 5-8), and 2 mg (weeks 9-12). For the efficacy analysis, 50 subjects were observed (25 in the fixed-dose group and 25 in the dose escalation group).\nThe objective of this study was preliminary evaluation of the efficacy (based on serum lipid levels), safety, and pharmacokinetics of the compound of formula (I) administered orally twice daily after breakfast and supper for 12 weeks as a fixed dose (4 mg/day) or escalating dose (1 mg/day, 2 mg/day and 4 mg/day) regimen in patients with hyperlipidemia."}, "[8]": {"experiment": "3-month oral repeated dose toxicity study in dogs", "format": "in vivo", "details": "25 mg/kg"}, "serum lipid levels [9]": {"system": "serum lipid levels", "experiment": "Example 3: serum lipid levels", "format": "in vivo, human", "details": "active groups", "experimental": "Eighteen healthy Japanese males 20 to 35 years of age with a BMI of 18.5 to 25 kg/m^2 participated in the study. The subjects were divided into two dosing groups and within each dosing group, the subjects were divided as follows: 6 subjects received the compound of formula (I) and 3 subjects received placebo. The dosing regimen was oral administration of a tablet twice a day for 14 days after breakfast and dinner (specifically, within 180 minutes of the commencement of eating), in which each tablet contained 1 mg (2 mg/day) or 2 mg (4 mg/day)."}, "[10]": {"experiment": "Example 3: repeated dose study of tablets 1 or 2 mg BID, safety", "experimental": "The subjects were divided into two dosing groups and within each dosing group, the subjects were divided as follows: 6 subjects received the compound of formula (I) and 3 subjects received placebo.\nFor the determination of plasma concentrations of the compound of formula (I) and metabolite M1 in this study, the bioanalytical method achieved a sensitivity (LLOQ) of 0.3 ng/mL. Adverse event (AE) information was collected from each subject."}},
  "data": [
    {"smiles": "CCOC(=O)C(COC(=O)Cc1ccc(NC(=O)c2ccccc2-c2ccc(C(F)(F)F)cc2)c(C(=O)N(C)C)c1)(C(=O)OCC)c1ccccc1", "note": "[compound of formula (I), diethyl 2-((2-(3-(dimethylcarbamoyl)-4-(4′-(trifiuoromethyl)biphenyl-2-ylcarboxamido)phenyl)acetoxy)methyl)-2-phenyl malonate]", "values": [
      {"measurement": "plasma concentrations of the compound of formula (I)", "setting": "[1]", "result": "< 3", "unit": "ng/mL"},
      {"measurement": "effects on LDL-C, HDL-C, VLDL-C, and VLDL-TG vs QD regimens", "setting": "serum lipid levels [2]; 5 mg BID", "result": "more marked effects"},
      {"measurement": "expected postprandial increase of TG and chylomicron-TG", "setting": "serum lipid levels [2]; healthy subjects and patients with high TG", "result": "suppressed"},
      {"measurement": "campesterol (marker of cholesterol absorption)", "setting": "serum lipid levels [2]; in vivo", "result": "affects campesterol"},
      {"measurement": "lathosterol (marker of cholesterol synthesis by the liver)", "setting": "serum lipid levels [2]; in vivo", "result": "not lathosterol"},
      {"measurement": "impact on triglyceride-rich lipoproteins (ApoCII, ApoCIII, VLDL-TG, VLDL-C)", "setting": "serum lipid levels [2]; once-daily regimen", "result": "no discernible impact"},
      {"measurement": "plasma compound of formula (I) concentrations", "setting": "[3]; 0.5 and 1 mg BID, not quantifiable", "result": "< 0.3", "unit": "ng/mL"},
      {"measurement": "plasma compound of formula (I) concentrations", "setting": "[3]; 2 and 4 mg BID", "result": "not quantifiable, except in a few sporadic cases"},
      {"measurement": "mean changes from baseline in weight", "setting": "[4]; 1 mg BID", "result": -0.31, "unit": "kg"},
      {"measurement": "average weight loss", "setting": "[4]; 1 mg BID, 14 days", "result": 0.31, "unit": "kg"},
      {"measurement": "mean changes from baseline in weight", "setting": "[4]; 2.5 mg BID", "result": -0.68, "unit": "kg"},
      {"measurement": "average weight loss", "setting": "[4]; 2.5 mg BID, 14 days", "result": 0.68, "unit": "kg"},
      {"measurement": "mean changes from baseline in weight", "setting": "[4]; 3.5 mg BID", "result": -1.39, "unit": "kg"},
      {"measurement": "average weight loss", "setting": "[4]; 3.5 mg BID, 14 days", "result": 1.39, "unit": "kg"},
      {"measurement": "average weight loss", "setting": "[4]; 5 mg BID, 14 days", "result": 2.07, "unit": "kg"},
      {"measurement": "average weight loss", "setting": "[4]; 5 mg BID, Day 10 (n=9)", "result": 2.32, "unit": "kg"},
      {"measurement": "subjects who withdrew due to GI-related adverse events prior to Day 14", "setting": "[4]; 5 mg dose group", "result": "six"},
      {"measurement": "tolerability at 5 mg BID", "setting": "[4]; obese subjects", "result": "not at 5 mg BID"},
      {"measurement": "well tolerated doses", "setting": "[4]; obese subjects", "result": "up to 3.5 mg BID"},
      {"measurement": "mean percent change in LDL-C levels at Week 8 from baseline", "setting": "LDL-C levels; 0.5 mg BID", "result": "−4.3", "unit": "%"},
      {"measurement": "mean percent change in LDL-C levels at Week 8 from baseline", "setting": "LDL-C levels; 1 mg BID", "result": "−4.5", "unit": "%"},
      {"measurement": "mean percent change in LDL-C levels at Week 8 from baseline", "setting": "LDL-C levels; 2 mg BID", "result": "−12.2", "unit": "%"},
      {"measurement": "mean percent change in LDL-C levels at Week 8 from baseline", "setting": "LDL-C levels; 4 mg BID", "result": "−12.3", "unit": "%"},
      {"measurement": "ApoB and ApoE levels", "setting": "LDL-C levels; 2 and 4 mg BID", "result": "decreased"},
      {"measurement": "TC levels", "setting": "LDL-C levels; 2 and 4 mg BID, throughout treatment", "result": "decreased"},
      {"measurement": "insulin, hemoglobin Alc, adiponectin, or leptin level", "setting": "LDL-C levels; in vivo", "result": "did not affect"},
      {"measurement": "ApoB48, ApoA-I, ApoA-II, ApoC-II, and ApoC-III levels", "setting": "LDL-C levels; treatment period", "result": "no significant changes"},
      {"measurement": "time course of TG or HDL-C levels", "setting": "LDL-C levels; treatment period", "result": "no definite trend or dose correlation"},
      {"measurement": "trough concentrations of the compound of formula (I)", "setting": "[5]; 1 mg BID", "result": "not quantifiable"},
      {"measurement": "trough concentrations of the compound of formula (I)", "setting": "[5]; 2.5 and 3.5 mg BID", "result": "quantifiable in a few subjects"},
      {"measurement": "plasma concentrations of the compound of formula (I)", "setting": "[6]; 1 mg, Day 14", "result": "not quantifiable"},
      {"measurement": "time up to which concentrations were quantifiable", "setting": "[6]; 2.5 mg and 3.5 mg groups, Day 14", "result": "up to 5 hr"},
      {"measurement": "subjects with quantifiable concentrations", "setting": "[6]; 2.5 mg, Day 14", "result": "2 of 8 subjects"},
      {"measurement": "subjects with quantifiable concentrations", "setting": "[6]; 3.5 mg, Day 14", "result": "7 of 8 subjects"},
      {"measurement": "subjects with quantifiable concentrations", "setting": "[6]; 5 mg, Day 14", "result": "2 of 3 subjects"},
      {"measurement": "time for which concentrations were quantifiable", "setting": "[6]; 5 mg, Day 14", "result": "at least 6 hr"},
      {"measurement": "plasma concentrations of the compound of formula (I)", "setting": "[6]; 1 to 5 mg, Day 1", "result": "generally below the limit of quantization"},
      {"measurement": "Cmax and AUC0-τ dose proportionality", "setting": "[6]; 2.5 to 5 mg", "result": "approximately dose proportional"},
      {"measurement": "systemic exposure", "setting": "[6]; BID for 14 days", "result": "negligible"},
      {"measurement": "parent/metabolite ratio for AUC0-τ", "setting": "[6]; all dose levels", "result": "less than 0.01"},
      {"measurement": "parent/metabolite ratio for Cmax", "setting": "[6]; all dose levels", "result": "less than 0.03"},
      {"measurement": "oral clearance", "setting": "[6]; quantifiable dose groups", "result": "high oral clearance"},
      {"measurement": "TG level", "setting": "serum lipid levels [7]; both groups", "result": "tended to increase"},
      {"measurement": "LDL-C level decrease", "setting": "serum lipid levels [7]; Week 10 (4 mg/day)", "result": "−7.24", "unit": "%"},
      {"measurement": "LDL-C level decrease", "setting": "serum lipid levels [7]; Week 12 (4 mg/day)", "result": "−7.12", "unit": "%"},
      {"measurement": "LDL-C level maximum decrease", "setting": "serum lipid levels [7]; fixed-dose group (2 mg BID), Week 2", "result": "−6.38", "unit": "%"},
      {"measurement": "LDL-C level change", "setting": "serum lipid levels [7]; fixed-dose group, after Week 2 through Week 12", "result": "−1.96 to −5.98", "unit": "%"},
      {"measurement": "toxicity findings", "setting": "[8]; 3-month safety study", "result": "no toxicity findings"},
      {"measurement": "vitamins D and E", "setting": "[8]; 3 months oral", "result": "decreased or tended to decrease"},
      {"measurement": "postprandial elevation in TG, HDL-TG, LDL-TG, Midband-TG, and CM-TG", "setting": "serum lipid levels [9]", "result": "inhibited a postprandial elevation"},
      {"measurement": "subjects with adverse events (incidence)", "setting": "[10]; 1 mg BID", "result": 66.7, "unit": "%"},
      {"measurement": "subjects with adverse events (incidence)", "setting": "[10]; 2 mg BID", "result": 50.0, "unit": "%"},
      {"measurement": "fat-soluble vitamins (vitamin A, 25-OH vitamin D, and vitamin E)", "setting": "[10]; 1 and 2 mg BID", "result": "no decrease"},
      {"measurement": "severity of all adverse events", "setting": "[10]; 1 and 2 mg BID", "result": "mild"},
      {"measurement": "death or serious adverse events", "setting": "[10]; 1 or 2 mg BID tablets, 14 days", "result": "No death or other serious adverse events occurred"},
      {"measurement": "subjects with adverse events (incidence)", "setting": "[10]; active group, 12 subjects", "result": 58.3, "unit": "%"},
      {"measurement": "incidence of diarrhea", "setting": "[10]; overall compound group", "result": 25.0, "unit": "%"},
      {"measurement": "incidence of gastrointestinal disorders (SOC)", "setting": "[10]; overall compound group", "result": 41.7, "unit": "%"},
      {"measurement": "incidence of investigations (SOC)", "setting": "[10]; overall compound group", "result": 33.3, "unit": "%"},
      {"measurement": "incidence of loose stools", "setting": "[10]; overall compound group", "result": 25.0, "unit": "%"},
      {"measurement": "tolerable dose", "setting": "[10]; twice daily for 14 days, tablets", "result": "up to 2 mg"}
    ]}
  ]
}
